Results taken from patent US20240033263A1, “COMBINATION OF ALDOSE REDUCTASE INHIBITORS AND PROBENECID FOR THE TREATMENT OF DIABETIC COMPLICATIONS” (priority 2021, published 2024).
Like-named read-outs stand apart in the source and are kept apart here.

How the values were obtained:
[1] = set-up: species or system humans; details: in vivo
Description: AT-001 is in clinical development by Applied Therapeutics for treatment of diabetic cardiomyopathy (American Heart Association 2019 Abstract Mo-2278). […] So, AT-001 would be between approximately 7-12 times shorter lived in human plasma compared to the reported human plasma half-life of zopolrestat (vide infra).

[2] = humans, oral, SAD and MAD studies; cited from earlier work
[3] = humans; cited from earlier work
[4] = ARI i.v. with probenecid i.p., Sprague-Dawley rats; cited from earlier work
[5] = cited from earlier work
[6] = humans, oral route; cited from earlier work
[7] = target: T1, transient receptor potential vanilloid 2 (TRPV2) channel (Homo sapiens, UniProt Q9Y5S1); details: cited from earlier work
T1 sequence (Q9Y5S1 1-764): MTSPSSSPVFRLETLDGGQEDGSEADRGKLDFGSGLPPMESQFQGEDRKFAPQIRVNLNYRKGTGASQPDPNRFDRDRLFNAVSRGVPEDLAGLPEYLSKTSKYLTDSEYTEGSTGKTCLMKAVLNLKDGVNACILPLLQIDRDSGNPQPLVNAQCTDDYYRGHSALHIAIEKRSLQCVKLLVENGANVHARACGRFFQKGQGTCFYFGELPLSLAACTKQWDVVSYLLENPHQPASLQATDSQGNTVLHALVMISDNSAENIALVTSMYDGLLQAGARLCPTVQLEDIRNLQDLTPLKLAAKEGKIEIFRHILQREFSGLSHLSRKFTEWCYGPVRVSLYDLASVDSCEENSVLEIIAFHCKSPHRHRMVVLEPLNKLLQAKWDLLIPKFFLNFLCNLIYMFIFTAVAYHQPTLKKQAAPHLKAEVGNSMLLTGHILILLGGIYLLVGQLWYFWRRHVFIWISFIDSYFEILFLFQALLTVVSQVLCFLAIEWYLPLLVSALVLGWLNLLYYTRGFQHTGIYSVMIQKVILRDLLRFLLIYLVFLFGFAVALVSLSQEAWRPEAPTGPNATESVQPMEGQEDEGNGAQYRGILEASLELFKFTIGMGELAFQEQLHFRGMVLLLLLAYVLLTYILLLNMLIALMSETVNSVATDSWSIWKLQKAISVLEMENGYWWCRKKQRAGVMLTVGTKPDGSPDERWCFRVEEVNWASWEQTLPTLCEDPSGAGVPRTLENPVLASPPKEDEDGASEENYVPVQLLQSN

TRPV2 = target: T2, TRPV2 (Mus musculus, UniProt Q9WTR1); details: cited from earlier work
T2 construct: TRPV2 is expressed in the murine heart; host or cells: murine heart (in vitro and in vivo)
T2 sequence (Q9WTR1 1-756): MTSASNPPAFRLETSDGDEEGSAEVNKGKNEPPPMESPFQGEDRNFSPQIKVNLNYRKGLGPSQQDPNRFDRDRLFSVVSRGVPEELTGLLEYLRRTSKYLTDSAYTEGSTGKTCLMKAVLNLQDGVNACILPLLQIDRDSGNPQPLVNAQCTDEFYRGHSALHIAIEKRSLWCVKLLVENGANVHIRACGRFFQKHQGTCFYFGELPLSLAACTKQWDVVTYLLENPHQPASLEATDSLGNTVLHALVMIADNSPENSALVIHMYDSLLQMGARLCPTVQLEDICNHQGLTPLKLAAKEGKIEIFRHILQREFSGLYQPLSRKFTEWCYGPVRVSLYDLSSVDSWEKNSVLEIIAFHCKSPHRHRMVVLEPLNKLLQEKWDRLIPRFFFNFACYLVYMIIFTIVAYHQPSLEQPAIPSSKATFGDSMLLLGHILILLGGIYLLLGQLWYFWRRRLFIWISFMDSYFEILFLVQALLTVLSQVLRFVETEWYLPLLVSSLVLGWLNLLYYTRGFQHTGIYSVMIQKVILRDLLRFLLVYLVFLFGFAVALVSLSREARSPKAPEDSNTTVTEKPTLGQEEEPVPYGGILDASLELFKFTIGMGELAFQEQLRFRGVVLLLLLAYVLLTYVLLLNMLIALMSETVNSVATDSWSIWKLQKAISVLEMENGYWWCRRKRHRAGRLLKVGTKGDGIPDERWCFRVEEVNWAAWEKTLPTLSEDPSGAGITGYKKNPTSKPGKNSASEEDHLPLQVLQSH

[8] = animal model, cited from earlier work
[9] = non-diabetic patients with heart failure with reduced ejection fraction; cited from earlier work
[10] = mouse model of peripartum cardiomyopathy; cited from earlier work
[11] = water; cited from earlier work

O=C(O)Cc1nn(Cc2nc3cc(C(F)(F)F)ccc3s2)c(=O)c2nccnc12 [AT-001]
times shorter lived in human plasma compared to zopolrestat [1]: 7-12 times | median time of maximum concentration (Tmax) [2]: 1.75 to 3.38 h | plasma half-life [2]: 1.74 to 3.38 h

CC(/C=C1\SC(=S)N(CC(=O)O)C1=O)=C\c1ccccc1 [Epalrestat]
plasma half-life [3]: relatively short

O=C(O)CNS(=O)(=O)c1ccc(NC(=O)c2ccccc2)cc1 [N-[4-(benzoylaminophenyl)sulfonyl]glycine]
plasma profiles and pharmacokinetic parameters (AUC, clearance, mean residence time, volume of distribution) [4]: did not alter

O=C(O)Cc1nn(Cc2nc3cc(C(F)(F)F)ccc3s2)c(=O)c2ccccc12 [zopolrestat]
resting diastolic filling rates ([5]; after 1 year of treatment, either group): no change | exercise LVEF ([5]; after 1 year of zopolrestat treatment, P 0.001): increases | left ventricular stroke volume ([5]; after 1 year of zopolrestat treatment, P 0.004): increases | resting left ventricular ejection fraction (LVEF) ([5]; after 1 year of zopolrestat treatment, P 0.02): increases | cardiac output ([5]; after 1 year of zopolrestat treatment, P 0.03): increases | plasma half-life [6]: 27.5 h

CCCN(CCC)S(=O)(=O)c1ccc(C(=O)O)cc1 [probenecid, 4-(dipropylsulfamoyl)benzoic acid]
agonism of TRPV2 channel [7]: potent agonist | inotropic response (TRPV2; both in vitro and in vivo): positive inotropic response | cytosolic calcium (Ca2+) concentration (TRPV2; murine heart, TRPV2 activated with probenecid): increases | apoptotic or arrhythmic pathways [8]: does not elicit | myocardial contractility ([8]; via increased calcium cycling on a beat-to-beat basis): increases | cardiac function [9]: improve cardiac function | outcomes [10]: improves outcomes

CCCN(CCC)S(=O)(=O)c1ccc(C(=O)[O-])cc1.[Na+] [sodium salt of probenecid]
solubility [11]: 77 mg/mL
